Assay: gradient 5% acetonitrile 3 min, to 50% in 2 min, to 85% in 15 min, held 3 min, 100 µL/min
Conditions: column: Zorbax Extend-C18 2.1 x 50 mm; eluents: water / acetonitrile, 0.1% formic acid
How it was run: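 Retention times come from adduct peaks that were picked computationally and then checked by hand. The standards, pure and pooled in mixtures of ~100 molecules, were run on a Zorbax Extend-C18 column (2.1 × 50 mm, 1.8 μm) at 100 μL/min with water and acetonitrile, each with 0.1% formic acid. Detection was by quadrupole time-of-flight mass spectrometry in positive and negative ionization mode, with a dead volume of 40 μL and a dwell volume of 900 μL.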

For `COc1ccc(-c2ccc(=O)n(Cc3nc(-c4cccc(Cl)c4)no3)n2)cc1OC`, the RP-LC retention time was 976 s.

Work on `Cc1cccc(-c2nnc(-c3cccc(S(=O)(=O)N(C)C)c3)o2)c1` yielded an RP-LC retention time of 982 s.

For `CC1=NS(=O)(=O)N(Cc2ccccc2)C=C1C(=O)OCc1nc(-c2ccc(F)cc2)no1`, the RP-LC retention time was 1140 s.

For `O=C(Cn1nc2c3cc(-c4ccccc4)nn3ccn2c1=O)Nc1cccc(Br)c1`, the RP-LC retention time was 952 s.

In the case of `C=CCN1CC(c2nc3ccccc3n2Cc2c(F)cccc2Cl)CC1=O` (stereo not given), the RP-LC retention time is reported as 688 s.

`O=C(Nc1ccccc1)C1CCCN(c2ncnc3c2oc2ccccc23)C1` (stereo not given) gave an RP-LC retention time of 798 s.

With `CCOCCCNC(=O)Cn1nc(C)c2nn(-c3ccc(Cl)cc3)c(-n3cccc3)c2c1=O` the RP-LC retention time was 898 s.

`CCNC(=O)NCCC1CCN(S(=O)(=O)c2ccc(F)cc2)CC1` gave an RP-LC retention time of 728 s.

With `CCN(C(=O)Cn1nc2cc(-c3ccccc3)nc(C)n2c1=O)c1cccc(C)c1` the RP-LC retention time was 862 s.

With `COc1cccc(NC(=O)c2cccn2Cc2noc(C)n2)c1` the RP-LC retention time was 792 s.

`Cc1cc2nn(CC(=O)Nc3ccc(Cl)cc3)c(=O)n2c(N2CCCC2)n1` showed an RP-LC retention time of 802 s.

For `CCOC(=O)C1CCN(c2cc3c(cc2NC(=O)NC(C)C)n(C)c(=O)n3C)CC1`, the RP-LC retention time was 713 s.

Work on `COc1cccc([C@@]2(O)CCCC[C@H]2CN(C)C)c1` yielded an RP-LC retention time of 591 s.

Work on `CCC1CN2C=Nc3oc(C)c(C(=O)Nc4ccc(C(F)(F)F)cc4)c3C2=N1` (stereo not given) yielded an RP-LC retention time of 753 s.

Compound `O=C(NCc1cccnc1)C1c2ccccc2C(=O)N1C1CCCCCC1` (stereo not given) has an RP-LC retention time of 624 s.

Compound `CC(=O)N1CCCC(C(=O)N2CCOCC2)C1` (stereo not given) has an RP-LC retention time of 554 s.

With `O=C(c1ccccn1)N1CCC(n2c(-c3ccsc3)nc3cccnc32)C1` (stereo not given) the RP-LC retention time was 625 s.

For `Cc1ccc(NS(=O)(=O)c2cc(-c3[nH]ncc3C(=O)N3CCOCC3)oc2C)c(C)c1`, the RP-LC retention time was 721 s.

`CCc1ccc(S(=O)(=O)N2CCC(c3noc(-c4ccccc4C)n3)CC2)cc1` showed an RP-LC retention time of 1150 s.

In the case of `CCn1c(=O)c(N2CCC(NC(=O)NCCc3ccccc3)CC2)nc2ccccc21`, the RP-LC retention time is reported as 882 s.

In the case of `CCOc1ccc(CNC(=O)CN2CCN(Cc3ccc(F)cc3)C2=O)cc1OC`, the RP-LC retention time is reported as 751 s.

`COc1ccc(C(=O)Nc2nsc(-c3ccccc3)n2)cc1` showed an RP-LC retention time of 778 s.

For `CN1C(=O)C2(CCN(C(=O)c3cccc(Cl)c3)C2)c2ccccc21` (stereo not given), the RP-LC retention time was 811 s.

Compound `CCc1ccc(S(=O)(=O)c2cnc(N3CCN(c4ccccc4F)CC3)nc2N)cc1` has an RP-LC retention time of 1200 s.

`Cc1c(C(=O)NCc2cccnc2)oc2c1C(=O)CC(C)(C)C2` showed an RP-LC retention time of 560 s.

With `O=C(CN1C(=O)NC2(CCCCC2)C1=O)Nc1cc(F)cc(F)c1` the RP-LC retention time was 827 s.

For `Cc1noc(C)c1S(=O)(=O)NCC(c1cccs1)S(=O)(=O)c1ccc(F)cc1` (stereo not given), the RP-LC retention time was 847 s.

In the case of `CC(=O)c1sc(NC(=O)c2ccccc2[N+](=O)[O-])nc1C`, the RP-LC retention time is reported as 679 s.

Work on `O=C(O)c1ccc(N2CCCC(CN3CCCC3)C2)c(NS(=O)(=O)c2ccccc2)c1` (stereo not given) yielded an RP-LC retention time of 643 s.

Compound `Cc1nnc(-c2ccc3ccn(CC(=O)N4CCN(c5ccccn5)CC4)c3c2)o1` has an RP-LC retention time of 598 s.

`O=C(NCc1nnc2n1CCCC2)c1ccc2c(c1)OCO2` gave an RP-LC retention time of 1260 s.

With `CC(C)Cc1ccc(S(=O)(=O)N2CCC(c3nc4cccnc4n3C)C2)cc1` (stereo not given) the RP-LC retention time was 929 s.

With `OC1(c2ccccn2)CCOC2(CCN(Cc3ccc(F)cc3Cl)CC2)C1` (stereo not given) the RP-LC retention time was 570 s.

`Cc1cc(C)cc(Nc2c(-c3ccc(C(=O)O)cc3)nc3cnccn23)c1` gave an RP-LC retention time of 779 s.

With `Cc1nnc2c(=O)n(CC(=O)NCc3cc(F)cc(F)c3)c3cccnc3n12` the RP-LC retention time was 686 s.

Compound `CN(C(=O)Cn1nc(Cc2ccncc2)c2ccccc2c1=O)c1ccccc1Cl` has an RP-LC retention time of 627 s.

With `Cc1ccnc(N2CCC(C(=O)NCc3ccco3)CC2)n1` the RP-LC retention time was 624 s.

Compound `CCc1ccc(NC(=O)c2cc3c(=O)n(CC)ccc3n2C)cc1` has an RP-LC retention time of 753 s.

With `COc1ccccc1N1C(=O)c2cccc3cccc(c23)C1=O` the RP-LC retention time was 832 s.

For `CCCn1ccc2oc(C)c(C(=O)NCc3cc(F)ccc3F)c2c1=O`, the RP-LC retention time was 1040 s.

For `COc1ccc(NS(=O)(=O)c2cn(CC(C)C)c3ncccc23)cc1`, the RP-LC retention time was 896 s.

With `O=C(c1cc(-c2ccncc2)n[nH]1)N1CCCC(C(=O)N2CCc3ccccc3C2)C1` (stereo not given) the RP-LC retention time was 608 s.

`CC1=C(c2ccc(C)cc2)S(=O)(=O)N=C1N1CCCN(C(=O)C2CCOC2)CC1` (stereo not given) gave an RP-LC retention time of 732 s.

`Cc1cc(C)cc(NC(=O)CN2CCC(C(=O)Nc3ccc(C(N)=O)cc3)CC2)c1` gave an RP-LC retention time of 571 s.

In the case of `CCNC(=O)CCc1nc2ccccc2n(CC(=O)Nc2cc(OC)cc(OC)c2)c1=O`, the RP-LC retention time is reported as 737 s.

`COc1ccc(C(=O)N2[C@H]3CC[C@@H]2c2cnc(-c4ccc(F)cc4)nc2C3)cn1` showed an RP-LC retention time of 892 s.

For `Cc1noc(C)c1-c1ccc(S(=O)(=O)N2CCc3ccccc3C2)cc1`, the RP-LC retention time was 1050 s.

For `C=CCNC(=O)c1ccc(-n2nc(C)cc2C)nc1`, the RP-LC retention time was 739 s.

In the case of `O=C(Cn1cc(-c2ccccc2)c2ncnc(N3CCOCC3)c21)NC1CCCC1`, the RP-LC retention time is reported as 717 s.

`CCCn1ccc2sc(C)c(C(=O)N3CCCCC3)c2c1=O` showed an RP-LC retention time of 760 s.

`COc1cccc(NC(=O)N2CCN(c3nc4ccccc4n3Cc3ccccc3)CC2)c1` gave an RP-LC retention time of 614 s.

`CN(C)CCNC(=O)Cn1c2ccccc2c2cnn(C)c(=O)c21` showed an RP-LC retention time of 576 s.

Compound `COC(=O)c1ccc2c(=O)n(-c3ccc(OC)c(OC)c3)c(N3CCC(C)CC3)nc2c1` has an RP-LC retention time of 1070 s.

In the case of `Cc1nnc(-c2ccc3ccn(CC(=O)NCC(C)c4ccccc4)c3c2)o1` (stereo not given), the RP-LC retention time is reported as 793 s.

`CCn1c(=O)c(=O)n(CC(=O)NC2CCCCCCC2)c2cccnc21` showed an RP-LC retention time of 806 s.

`CCCn1cc(CCNC(=O)Cc2ccccc2Cl)c2cccnc21` gave an RP-LC retention time of 770 s.

With `CC1CCCN(CCNC(=O)C2CCc3nc(N4CCOCC4)ncc3C2)C1` (stereo not given) the RP-LC retention time was 557 s.

`Fc1ccc(F)c(-c2nc(-c3ccc(-n4cccn4)nc3)no2)c1` gave an RP-LC retention time of 1170 s.

Compound `CCOC(=O)c1ccc2[nH]c(-c3ccc(S(=O)(=O)F)cc3)cc(=O)c2c1` has an RP-LC retention time of 858 s.

`Cc1nnc(N2CCCC(C(=O)NCCc3ccccc3)C2)c2nn(-c3ccc(Cl)cc3)c(C)c12` (stereo not given) showed an RP-LC retention time of 789 s.

Work on `Cc1ccc(CNC(=O)c2ccc3ncnc(N4CCCC4)c3c2)cc1C` yielded an RP-LC retention time of 684 s.

Compound `CCCCn1c(=O)c2ccccc2n(Cc2nc(-c3ccccc3Cl)no2)c1=O` has an RP-LC retention time of 1160 s.

In the case of `Cc1ccc(-c2cc(C(=O)N3CCCC3)n(C)c2)cc1`, the RP-LC retention time is reported as 965 s.

`c1cc(OCc2ccc(CC3CCN(C4CCOCC4)CC3)cc2)ccn1` gave an RP-LC retention time of 548 s.

`Cc1nc(-c2csc(S(=O)(=O)N3CCN(c4cccc(Cl)c4)CC3)c2)sc1C` showed an RP-LC retention time of 1270 s.

`CC1=C(c2ccc(C)c(C)c2)S(=O)(=O)N=C1N1CCCN(C(=O)C2CCCO2)CC1` (stereo not given) showed an RP-LC retention time of 790 s.

In the case of `CCN1C(=O)c2cccnc2Sc2cc(NC(=O)c3ccc(C)c(C)c3)ccc21`, the RP-LC retention time is reported as 918 s.

`O=c1[nH]c2ccc(NCc3ccc(Cl)c(Cl)c3)cc2[nH]1` gave an RP-LC retention time of 707 s.

For `Cc1cc(N2CCCCC2)nc(N2CCN(S(=O)(=O)c3ccc(Br)cc3)CC2)n1`, the RP-LC retention time was 847 s.

`O=C1CCN(C(=O)C2CCN(C(=O)CN3CCCC3=O)CC2)CCCCCCN1` showed an RP-LC retention time of 572 s.

`CCC(=O)Nc1ccc(CCc2nc3ccc(C(=O)NC(c4cccs4)C(C)C)cc3[nH]2)cc1` (stereo not given) gave an RP-LC retention time of 702 s.

Compound `O=C(CN1C(=O)CCC1=O)NCC1(c2ccc(F)cc2)CC1` has an RP-LC retention time of 665 s.

`CCNc1cc(N2CCC(CCC(=O)NCc3ccc(Cl)cc3)CC2)ncn1` gave an RP-LC retention time of 585 s.

`CCOC(=O)c1ccc(NS(=O)(=O)c2ccc(-c3c(C)noc3C)cc2)cc1` showed an RP-LC retention time of 941 s.

In the case of `CC(C)CN1Cc2ccccc2-n2ccnc2C12CCN(C(=O)C1CC1)CC2`, the RP-LC retention time is reported as 648 s.

Compound `O=C(NCc1cccc2ccccc12)C(=O)c1c[nH]c2ccccc12` has an RP-LC retention time of 1010 s.

With `COc1ccc(N2C=C(C#N)S(=O)(=O)c3c(F)cccc32)c(OC)c1` the RP-LC retention time was 893 s.

`CC(C)CCNS(=O)(=O)c1cc(-c2nc(C(C)(C)C)cs2)cs1` showed an RP-LC retention time of 1310 s.

Work on `Cc1ccccc1NC(=O)Nc1cccnc1N(C)C` yielded an RP-LC retention time of 590 s.

`COc1ccccc1NC(=O)c1cnc2c(c1)c(=O)n(C)c(=O)n2-c1ccc(C)cc1` gave an RP-LC retention time of 944 s.

With `O=C(Cn1c(=O)n(CCc2ccccc2)c(=O)c2ncccc21)Nc1ccc2c(c1)OCO2` the RP-LC retention time was 734 s.

With `CCOc1ncccc1CNC(=O)NCc1cccc(OC)c1` the RP-LC retention time was 570 s.

`CN(C(=O)Cn1cnc2c(-c3ccccc3)csc2c1=O)c1ccccc1` gave an RP-LC retention time of 911 s.

`COCC(C)(O)CNC(=O)Nc1cccs1` (stereo not given) showed an RP-LC retention time of 594 s.

In the case of `COCC(=O)N(C1CCOCC1)C1CCN(S(=O)(=O)c2cccc(C)c2)CC1`, the RP-LC retention time is reported as 762 s.

Work on `Cc1ccc(N2CC(c3noc(-c4cccc(N(C)C)c4)n3)CC2=O)cc1` (stereo not given) yielded an RP-LC retention time of 1090 s.

With `COc1ccc(C(=O)N2CCCCC2c2nncn2C)cn1` (stereo not given) the RP-LC retention time was 603 s.

`COc1ccc(-c2nc3cnccn3c2Nc2cc(C)cc(C)c2)cc1` gave an RP-LC retention time of 952 s.

`Cc1ccccc1-n1nc2c(c1NC(=O)CSCc1ccccc1)CSC2` showed an RP-LC retention time of 907 s.

With `CN1CCC(NC(=O)c2n[nH]c3c2CN(C(=O)c2cc(F)cc(F)c2)CC3)CC1` the RP-LC retention time was 597 s.

Source: the METLIN SMRT retention time set (Domingo-Almenara et al. 2019)
